Legend:
[1] = source not stated; cited from earlier work
[2] = Transwell permeability assay with iPSC-derived hBMECs; assay type: in vitro ADME; conditions: human, stem-cell derived hBMECs, obtained as part of this work
Procedure: To validate results from MD simulations, permeabilities for selected molecules were determined using the transwell assay with human induced pluripotent stem cell (iPSC)-derived hBMECs. […] Briefly, hBMECs were sub-cultured onto polyester 12-well transwell inserts with a 0.4 µm pore size (Corning) coated with 1:1 collagen IV (100 µg mL^−1, Sigma) and fibronectin (50 µg mL^−1, Sigma) at a density of 1 × 10^6 cells mL^−1 and allowed to reach confluence for another two days. Permeability experiments were performed only if the transendothelial electrical resistance (TEER) was in excess of 1500 Ω cm^2. Prior to permeability experiments, cells were washed with transport buffer (0.12 M NaCl, 25 mM NaHCO3, 3 mM KCl, 2 mM MgSO4, 2 mM CaCl2, 0.4 mM K2HPO4, 1 mM 4-(2-hydroxyethyl)-1-piperazineethanesulfonic acid (HEPES), and 0.1% human platelet poor derived serum) and 100 µL of the molecule of interest in transport buffer was introduced into the apical well.
Experimentally, solute permeabilities are determined using a transwell assay from the concentrations in the apical (luminal, CL) and basolateral (abluminal, CA) compartments after time t using:10 P=VA⋅CA/(t⋅S⋅CL), where VA is the volume of the basolateral compartment (see Supporting Material for details).

MDCKII cells = tested on: MDCKII cells; parameters: method as in Summerfield et al. 32; conditions: transwell, ref Summerfield et al. 32; cited from earlier work
[3] = from experiment; ref Atkinson, Berg, 1988; cited from earlier work
bovine BMECs = tested on: bovine BMECs; parameters: method as in Shah et al. 33; conditions: transwell, ref Shah et al. 33; cited from earlier work
red blood cells = tested on: red blood cells; parameters: method as in Brahm et al. 40; conditions: from rate constants km for transport into red blood cells, Papp = km/2; ref Brahm et al. 40; cited from earlier work
[4] = not told; cited from earlier work

For N [Ammonia], the Dipole moment [1] is listed as 1.47 D.
In the case of Cn1c(=O)c2c(ncn2C)n(C)c1=O [Caffeine], the Papp A→B [2] is given as 21 ×10⁻⁶ cm/s and the Dipole moment [1] is given as 3.65 D.
In the case of CCC1(C)CC(=O)NC1=O (stereo not shown) [Ethosuximide], the Papp (MDCKII cells) is given as 9.7 ×10⁻⁶ cm/s and the “Log P, octanol-water partition coefficient” value [3] is given as 0.38.
For OCC(O)CO [Glycerol], the Papp (bovine BMECs) is listed as 9.5 ×10⁻⁶ cm/s and the Dipole moment [1] is listed as 2.56 D.
For CCO [Ethanol], the Papp (red blood cells) is given as 2100 ×10⁻⁶ cm/s and the Dipole moment [1] is given as 1.69 D.
For O=C=O [Carbon -dioxide, Carbon dioxide], the Dipole moment [1] is listed as 0 D and the Papp [4] is listed as 1.6 ± 0.4 × 10^−1 cm/s.
In the case of CC(C)O [Isopropanol], the Papp (red blood cells) is listed as 6500 ×10⁻⁶ cm/s and the Dipole moment [1] is listed as 1.58 D.
